Reference: article PMC6946862 (Molecular carcinogenesis, 2019)
pIC50: −log10 of the molar value.

Biological target: NAE1 (APP-BP1/UBA3, NEDD8-activating enzyme E1 regulatory subunit) (Homo sapiens, UniProt Q13564)
Assay: in vitro NEDD8 initiation conjugation assay
Type: biochemical

NAE1 (APP-BP1/UBA3, NEDD8-activating enzyme E1 regulatory subunit), sequence (Q13564 2-534): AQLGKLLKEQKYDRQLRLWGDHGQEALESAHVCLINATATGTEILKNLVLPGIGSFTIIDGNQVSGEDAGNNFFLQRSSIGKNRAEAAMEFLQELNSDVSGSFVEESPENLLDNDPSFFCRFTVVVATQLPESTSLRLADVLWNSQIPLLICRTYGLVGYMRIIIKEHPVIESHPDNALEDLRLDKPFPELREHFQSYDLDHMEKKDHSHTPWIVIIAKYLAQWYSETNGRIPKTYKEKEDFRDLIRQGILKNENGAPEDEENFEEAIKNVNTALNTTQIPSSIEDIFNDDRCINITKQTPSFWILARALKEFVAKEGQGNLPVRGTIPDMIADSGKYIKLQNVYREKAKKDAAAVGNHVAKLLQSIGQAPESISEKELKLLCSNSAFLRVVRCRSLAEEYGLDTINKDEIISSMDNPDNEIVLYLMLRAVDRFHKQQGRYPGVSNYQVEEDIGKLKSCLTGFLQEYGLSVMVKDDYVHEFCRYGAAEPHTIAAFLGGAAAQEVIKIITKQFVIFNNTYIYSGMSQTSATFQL
NAE1 (APP-BP1/UBA3, NEDD8-activating enzyme E1 regulatory subunit), sequence (Q8TBC4 2-463 partner): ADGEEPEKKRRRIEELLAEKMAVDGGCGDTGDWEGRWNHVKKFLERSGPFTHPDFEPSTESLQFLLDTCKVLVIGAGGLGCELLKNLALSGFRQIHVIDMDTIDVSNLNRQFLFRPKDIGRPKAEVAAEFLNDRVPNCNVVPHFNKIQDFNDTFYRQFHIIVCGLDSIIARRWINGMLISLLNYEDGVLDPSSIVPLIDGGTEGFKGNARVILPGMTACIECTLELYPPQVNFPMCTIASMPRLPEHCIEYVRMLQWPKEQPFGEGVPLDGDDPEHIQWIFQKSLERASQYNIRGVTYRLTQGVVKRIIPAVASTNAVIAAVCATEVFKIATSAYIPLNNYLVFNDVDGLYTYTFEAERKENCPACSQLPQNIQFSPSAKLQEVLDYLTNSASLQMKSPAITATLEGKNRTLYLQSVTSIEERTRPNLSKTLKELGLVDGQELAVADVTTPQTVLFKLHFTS
NAE1 (APP-BP1/UBA3, NEDD8-activating enzyme E1 regulatory subunit), sequence (P61081 whole entry partner): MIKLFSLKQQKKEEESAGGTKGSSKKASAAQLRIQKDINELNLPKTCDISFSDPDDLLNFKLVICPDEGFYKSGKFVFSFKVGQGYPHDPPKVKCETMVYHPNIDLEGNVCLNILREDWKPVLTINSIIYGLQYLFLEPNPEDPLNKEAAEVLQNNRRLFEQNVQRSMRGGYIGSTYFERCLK
NAE1 (APP-BP1/UBA3, NEDD8-activating enzyme E1 regulatory subunit), sequence (Q15843 1-76 partner): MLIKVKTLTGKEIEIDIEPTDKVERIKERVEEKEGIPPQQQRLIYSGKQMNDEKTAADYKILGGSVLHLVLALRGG

CC(C)=CCc1c(O)c(CC=C(C)C)c2oc3c(O)ccc(O)c3c(=O)c2c1O [Gartanin]
pIC50: ~4.99
